Assay results taken from patent US6967102B1, “Nitric oxide manipulation of muscle satellite cell activation” (University of Manitoba, priority 1999, dated 2005).
Entries after “also recorded” stand apart in the source; their conditions may differ.

Tests used:
[1] = test system: regenerating mdx muscles; assay: Muscle regeneration 6 days after crush injury, mdx mice; type: in vivo; details: single L-NAME injection
Experimental: The time course of treatment effects was determined at two intervals; during the early response 0, 5, 10 and 30 min after injury, and over the longer term after 6 days recovery. Short term experiments were repeated at least twice. The longer term animals were maintained either on plain drinking water or water containing fresh L-NAME at 12.5 mg/100 ml (30 mg/kg/day), based on an intake of 6–7 ml/day/mouse (McIntosh et al., 1994. 17:444–453). In the longer term repair studies, there were 4 normal mice in each of saline- and L-NAME-treated groups. An additional 2 normal and 2 mdx mice were injected once before injury with L-NAME and given plain water for 6 days.
Sections and cultures were viewed on an Olympus microscope equipped with epifluorescence and phase contrast optics. Observations were based on systematic viewing of 2–4 longitudinal sections per muscle (separated by […]). In the case of muscle regenerating from crush injury, observations (without knowledge of treatment group) were made in pre-set fields of muscle from the central crush region, the adjacent regenerating region and the surviving region as reported (McIntosh et al. (1994) Muscle Nerve 17: 444–453). Representative photographs of muscle fibers and satellite cells were taken on over 700 frames of ASA 400 Fuji Sensia slide film. […]

[2] = test system: satellite cells; assay: Cell yield time course 0–30 min after crush injury of right tibialis anterior, mdx mice; type: in vivo; details: L-NAME
[3] = test system: dystrophic muscle; assay: Longer term systemic L-NAME treatment, severity of dystrophy in mdx mice; type: in vivo; details: systemic L-NAME (3 weeks / drinking water); young mdx animals; diaphragm, SOL, EDL, TA
Source text: The present results address for the first time the initial steps of satellite cell activation. A single exposure to NOS inhibition had subtle effects on myotube formation that echo NO-stimulated myoblast fusion in vitro. Longer NOS inhibition reduced the effectiveness of repair and restricted its distribution, in agreement with the idea that shear-induced responses become attenuated longitudinally away from the injury. The significant negative effect of pharmacologic NOS inhibition on myogenic repair reported here was further extended by the recent preliminary studies on repair in NOS-I knockout mice (n≈2), and during longer term NOS inhibition in mdx mice (n≈22).
A study of 4 groups (n≈10/group) of mdx dystrophic mice treated with placebo, deflazacort, deflazacort plus L-NAME (a NOS inhibitor), or deflazacort plus L-arginine (a […]). Deflazacort was given by daily injection (ip) and L-NAME and L-arginine were given systemically in the drinking water.

[4] = test system: satellite cells; assay: Histology and immunostaining (m-cadherin, c-met, HGF/SF) of satellite cells 0 and 10 min after crush; type: in vivo, normal mice
Experimental: A separate experiment was conducted to study the immediate effects of injury on muscle and satellite cell histology. […] Muscles were bisected longitudinally, and half of each muscle was frozen in OCT. for cryosectioning. Sections were stained with H&E or immunostained using primary antibodies to c-met (1:400), HGF/SF (1:1000, R&D Systems) or developmental myosin heavy chain ([…], 1:250, Novocastra Laboratories) as reported ([…] et al. (1996) Exp. Cell Res. 22: 214-222; Tatsumi et al. (1998) Dev. Biol. 194: 114-128) or against m-cadherin (1:50, Santa Cruz). […] Sections and cultures were viewed on an Olympus microscope equipped with epifluorescence and phase contrast optics. […] In the case of muscle regenerating from crush injury, observations (without knowledge of treatment group) were made in pre-set fields of muscle from the central crush region, the adjacent regenerating region and the surviving region as reported (McIntosh et al. (1994) Muscle Nerve 17: 444-453). Representative photographs of muscle fibers and satellite cells were taken on over 700 frames of ASA 400 Fuji […] slide film. Where stated, the number of satellite cells observed in each category, group or condition was estimated from photographed slides rather than from direct counts made during observations under oil immersion. Selected slides were scanned (Olympus Film Scanner ES-10, Olympus Optical Co., Tokyo), formatted into plates with little or no enlargement and printed (Freehand 8.0, Macromedia Inc.).

[5] = test system: satellite cells; assay: Satellite cell morphometry from electron micrographs 0 and 10 min after crush injury; type: in vivo, mice; details: L-NAME pretreatment
Source text: Measurements of cell area (size increases in activated cells), nucleus-to-cytoplasm ratio (a measure that decreases with activation), and cytoplasmic density (a measure that decreases in activation with the increase in cell size, despite the hypertrophy of cytoplasmic organelles) were made from electron micrographs without knowledge of their source. Two investigators had to agree on the satellite cell identification before cells were included in the study, with the stipulation that cell profiles had complete nuclei and cell membrane visible in a photograph or montage (all photographs taken at identical magnification of 10,000×) Satellite cells originated from the central crush-injured region of muscles collected from each mouse (n=4). Cytoplasmic density was determined as [the integrated cell density minus the integrated nuclear density] divided by [cell area minus nuclear area]. A computer was used to scan micrograph negatives, and digital images were analyzed using the program NIH Image for morphometry.

[6] = Muscle weight to body weight (edema) and haemorrhage after crush injury, normal mice; type: in vivo, normal mice (C57BL/6); details: ip treatment 30 min before crush; 0–30 min after injury
[7] = test system: satellite cells; assay: Cell yield time course 0–30 min after crush injury of right tibialis anterior, normal mice; type: in vivo, normal mice (C57BL/6)

SMILES: COC(=O)[C@@H](N)CCCNC(=N)N[N+](=O)[O-] [L-NAME, Nω-nitro-L-arginine methyl ester]
- new myotubes in continuity with satellite cells, anchored inside external lamina sheaths ([1]; 6 days): roughly 5%
- regenerating muscle over 6 days ([1]; n=2): subtle changes in regenerating mdx muscles
- increase of LTA cell yield at 10 min [2]: 50%
- RSOL cell yield ([2]; 0–30 min): did not change over time
- RTA cell yield time course ([2]; 0–30 min): rose slowly over the 30 min. time course; also recorded: decreased and further delayed the peak of myogenic cells; also recorded: prevented the increased RTA yield at 10 min
- severity of dystrophy [3]: appeared to increase the severity of dystrophy; also recorded: makes dystrophy more severe
- normal rapid changes in satellite cell size and position ([4]; L-NAME treatment 30 min before crush): consistently delayed and restricted
- satellite cells thin and attenuated in both RTA and LTA ([4]; L-NAME-treated mice, 0 min, more than 70 satellite cells identified): 85%
- satellite cells with c-met and HGF/SF co-localized ([4]; L-NAME-treated mice, 10 min after injury): at least 70%
- cell area ([5]; 0 minutes post-crush, n = 8): 9.0 ± 1.6 arbitrary units
- cytoplasmic density ([5]; 0 minutes post-crush, n = 8): 91.7 ± 5.8 arbitrary units
- nucleus:cytoplasm ratio ([5]; 0 minutes post-crush, n = 8): 70.2 ± 1.7%
- satellite cell activation state by morphologic criteria ([5]; 0–10 minutes post-crush): maintained quiescence over 10 minutes
- cell area ([5]; 10 minutes post-crush, n = 3): 6.3 ± 1.1 arbitrary units
- cytoplasmic density ([5]; 10 minutes post-crush, n = 3): 66.2 ± 2.1 arbitrary units
- nucleus:cytoplasm ratio ([5]; 10 minutes post-crush, n = 3): 52.0 ± 8.7 %
- muscle weight profile (RTA relative to LTA; muscle weight as proportion of body weight) [6]: RTA weight increased only at 10 min. relative to LTA
- time of delayed peak RTA yield after injury ([7]; L-NAME 3 mg/kg, one experiment): < 10 min
- LTA cell yield at 10 min relative to 0 min ([7]; L-NAME 7.5 mg/kg): 2 fold
- RTA cell yield at 10 min relative to 0 min ([7]; L-NAME 7.5 mg/kg): 3.5 fold
- time after injury until which the increased RTA cell yield is delayed ([7]; L-NAME 7.5 mg/kg ip 30 min before crush): 10 min
- initial injury-induced rise in RTA cell yield ([7]; L-NAME 7.5 mg/kg ip 30 min before crush, 0 min): preventing the initial injury-induced rise in RTA yield; also recorded: absent after L-NAME
- LTA cell yield lower than in saline-treated mice ([7]; L-NAME 7.5 mg/kg, 0 min): 15%
- RSOL cell yield lower than in saline-treated mice ([7]; L-NAME 7.5 mg/kg, 0 min): 50%
- fewer cells isolated from RTA than LTA ([7]; L-NAME 7.5 mg/kg, 0 min): 30%
- time of delayed peak RTA yield after injury ([7]; L-NAME 10 or 12.5 mg/kg, one experiment at each dose): > 10 min
- peak cell yield in RTA ([7]; L-NAME ip 30 min before crush): delayed (not reduced)
- peak in cell yield from LTA (at 10 min.) ([7]; L-NAME ip 30 min before crush): reduced but not delayed; also recorded: reduced by L-NAME treatment
